Assay results taken from patent JP2016199536A, “筋肉増強およびメタボリックシンドローム改善ならびにqol改善のための組成物” (NUTRITION ACT CO Ltd, priority 2015, dated 2016).

How the values were obtained:
[1] = Plasma insulin concentration in high-fat-diet mice (Example 5); assay type: in vivo, mouse; details: 10 weeks, C57BL/6J male mice, 6-compartment cage, high-fat diet with oleanolic acid or oleuropein 50 mg/kg diet, or Oleavita 1000 mg/kg diet
[2] = Body fat reduction in high-fat-diet mice, epididymal fat weight (Example 4); assay type: in vivo, mouse; details: 10 weeks, C57BL/6J male mice, 6-compartment cage, high-fat diet with oleanolic acid or oleuropein 50 mg/kg diet, or Oleavita 1000 mg/kg diet
[3] = Plasma leptin concentration in high-fat-diet mice (Example 5); assay type: in vivo, mouse; details: 10 weeks, C57BL/6J male mice, 6-compartment cage, high-fat diet with oleanolic acid or oleuropein 50 mg/kg diet, or Oleavita 1000 mg/kg diet
myoblasts (筋芽細胞) = assay: Myoblast differentiation promotion test, count of beating myotubes (Example 3); assay type: cell-based; details: 1 μM, 10 days after cell seeding, cells from ICR mouse fetal thigh muscle

| Structure (SMILES) | suppression of plasma insulin concentration [1] | fat-reducing effect compared with high-fat diet group (HF) [2] | plasma leptin concentration [3] | beating myotube cells compared with control (myoblasts (筋芽細胞)) |
| --- | --- | --- | --- | --- |
| C/C=C1/[C@H](O[C@@H]2O[C@H](CO)[C@@H](O)[C@H](O)[C@H]2O)OC=C(C(=O)OC)[C@H]1CC(=O)OCCc1ccc(O)c(O)c1 [オレウロペイン] | 抑制効果がなかった | 脂肪減少効果が見られなかった | 高値 | わずかに増加 |
| CC1(C)CC[C@]2(C(=O)O)CC[C@]3(C)C(=CC[C@@H]4[C@@]5(C)CC[C@H](O)C(C)(C)[C@@H]5CC[C@]43C)[C@@H]2C1 [オレアノール酸] | 抑制効果がなかった | 脂肪減少効果が見られなかった | 高値 | わずかに増加 |
